The source of these data is ChEMBL document CHEMBL1151757, “Synthesis, radiosynthesis, and biological evaluation of fluorine-18-labeled 2beta-carbo(fluoroalkoxy)-3beta-(3'-((Z)-2-haloethenyl)phenyl)nortropanes: candidate radioligands for in vivo imaging of the serotonin transporter with positron emission tomography” (J Med Chem, 2008).

Common to all, as to type: cell-based
The target in test [1] is Sodium-dependent serotonin transporter (Homo sapiens, UniProt P31645). As to the kind of experiment: Displacement of [3H](R,S)citalopram.HBr from human SERT transfected in human HEK293 cells. (In general: Loss of bound radioactivity is the signal in a displacement assay; it reports binding, not function.)
Sequence of Sodium-dependent serotonin transporter (P31645 whole entry): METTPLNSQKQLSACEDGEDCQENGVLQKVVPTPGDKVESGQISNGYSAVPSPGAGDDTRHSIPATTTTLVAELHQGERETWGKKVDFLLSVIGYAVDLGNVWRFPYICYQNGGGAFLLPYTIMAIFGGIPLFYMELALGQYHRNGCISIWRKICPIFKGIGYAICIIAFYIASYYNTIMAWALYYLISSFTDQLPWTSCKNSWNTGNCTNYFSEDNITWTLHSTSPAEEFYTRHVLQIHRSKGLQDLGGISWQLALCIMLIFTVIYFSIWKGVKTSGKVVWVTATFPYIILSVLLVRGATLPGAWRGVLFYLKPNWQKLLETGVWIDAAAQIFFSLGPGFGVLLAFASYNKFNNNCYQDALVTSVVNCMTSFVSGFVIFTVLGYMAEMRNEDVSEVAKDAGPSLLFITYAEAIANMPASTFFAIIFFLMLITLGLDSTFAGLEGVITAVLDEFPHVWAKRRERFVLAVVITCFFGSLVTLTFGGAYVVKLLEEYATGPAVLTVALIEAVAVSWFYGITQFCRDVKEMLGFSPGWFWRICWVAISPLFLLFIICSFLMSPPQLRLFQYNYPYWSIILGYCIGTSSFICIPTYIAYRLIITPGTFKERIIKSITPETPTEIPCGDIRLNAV
Test [2] deals with Sodium-dependent dopamine transporter (Homo sapiens, UniProt Q01959). As to the kind of experiment: Displacement of [3H]RTI-55 from human DAT transfected in human HEK293 cells.
Sequence of Sodium-dependent dopamine transporter (Q01959 whole entry): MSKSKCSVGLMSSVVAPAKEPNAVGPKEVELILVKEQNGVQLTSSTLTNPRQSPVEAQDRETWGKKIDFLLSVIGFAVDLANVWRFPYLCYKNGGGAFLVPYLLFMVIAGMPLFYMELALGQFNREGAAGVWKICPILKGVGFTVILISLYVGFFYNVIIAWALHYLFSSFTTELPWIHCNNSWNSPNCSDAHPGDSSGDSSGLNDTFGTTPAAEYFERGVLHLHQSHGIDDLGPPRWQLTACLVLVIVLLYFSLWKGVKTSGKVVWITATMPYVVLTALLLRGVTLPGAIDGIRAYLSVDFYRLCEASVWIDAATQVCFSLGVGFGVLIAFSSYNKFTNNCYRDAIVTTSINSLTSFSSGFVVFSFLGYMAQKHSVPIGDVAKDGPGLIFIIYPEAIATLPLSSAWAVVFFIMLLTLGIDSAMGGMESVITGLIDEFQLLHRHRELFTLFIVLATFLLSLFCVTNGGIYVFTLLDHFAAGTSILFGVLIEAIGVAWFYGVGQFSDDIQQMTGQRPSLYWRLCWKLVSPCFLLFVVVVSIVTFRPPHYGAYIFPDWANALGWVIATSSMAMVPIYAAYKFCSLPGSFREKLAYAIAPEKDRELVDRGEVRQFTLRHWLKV
Test [3] addresses Sodium-dependent noradrenaline transporter (Homo sapiens, UniProt P23975). The test can be described thus: Displacement of [3H]nisoxetine from human NET transfected in human HEK293 cells.
For test [4], the system named is HEK293. The test can be described thus: Selectivity for human DAT over human SERT transfected in human HEK293 cells.
Test [5] concerns HEK293. The test can be described thus: Selectivity for human NET over human SERT transfected in human HEK293 cells.

SMILES strings stand for the structures.

Sequence of Sodium-dependent noradrenaline transporter (P23975 whole entry): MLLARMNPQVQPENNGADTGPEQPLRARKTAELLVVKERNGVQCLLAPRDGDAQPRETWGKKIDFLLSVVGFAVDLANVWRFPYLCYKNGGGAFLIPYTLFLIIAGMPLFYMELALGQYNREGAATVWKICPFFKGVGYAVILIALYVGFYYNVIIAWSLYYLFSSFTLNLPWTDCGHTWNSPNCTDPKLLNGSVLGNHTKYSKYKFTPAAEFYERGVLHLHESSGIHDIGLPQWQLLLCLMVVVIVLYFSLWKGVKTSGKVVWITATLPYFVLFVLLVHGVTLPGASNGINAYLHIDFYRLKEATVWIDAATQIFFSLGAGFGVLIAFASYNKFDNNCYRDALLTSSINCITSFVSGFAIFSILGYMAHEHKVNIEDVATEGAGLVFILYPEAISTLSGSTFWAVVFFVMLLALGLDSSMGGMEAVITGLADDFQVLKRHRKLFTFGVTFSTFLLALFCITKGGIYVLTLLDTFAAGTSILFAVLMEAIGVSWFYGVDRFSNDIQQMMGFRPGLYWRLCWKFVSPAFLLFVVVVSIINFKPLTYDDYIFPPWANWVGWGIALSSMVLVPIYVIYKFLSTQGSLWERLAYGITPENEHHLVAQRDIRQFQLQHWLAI

By Ki is commonly meant the dissociation constant of the complex between target and ligand, obtained from inhibition or displacement. In the case of `O=C(OCCCF)C1C2CCC(CC1c1cccc(/C=C\I)c1)N2` (stereo not given), the inhibition constant (Ki) amounted to 0.26 nM in test [1], 180 nM in test [2] and 67.5 nM in test [3]. The figures for the Ratio Ki in the test with HEK293 [4] and in the test with HEK293 [5] were 691 and 260, respectively.
Taken in the same sequence, the figures for `O=C(OCCF)C1C2CCC(CC1c1cccc(/C=C\I)c1)N2` (stereo not given) were 0.43 nM, 87.6 nM, 110 nM, 204 and 256.
For `O=C(OCCCF)C1C2CCC(CC1c1cccc(/C=C\Br)c1)N2` (stereo not given), in that order: 0.33 nM, 119 nM, 30.2 nM, 360 and 92.
Turning to `O=C(OCCF)C1C2CCC(CC1c1cccc(/C=C\Br)c1)N2` (stereo not given), the inhibitory constant (Ki) stood at 0.33 nM in test [1], 35.5 nM in test [2] and 101 nM in test [3]. Also, the Ratio Ki came out at 108 with HEK293 [4] and 307 with HEK293 [5].
As to `O=C(OCCF)C1C2CCC(CC1c1cccc(/C=C/I)c1)N2` (trans isomer), the Ki was determined as 15.2 nM in test [1], 274 nM in test [2] and 1180 nM in test [3]. Also, the Ratio Ki with HEK293 [4] is 18; with HEK293 [5], 78.
